According to US20210323950A1, “HERBICIDALLY ACTIVE BICYCLIC BENZOYLPYRAZOLES” (Bayer Aktiengesellschaft, priority 2018, published 2021):

Tested on: Cyperus esculentus (CYPES)
Test: Pre-emergence herbicidal action against CYPES
Assay type: in vivo
Settings: 320 g/ha, scored visually after about 3 weeks vs untreated controls
Source text: CYPES: Cyperus esculentus 1. Pre-Emergence Herbicidal Action and Crop Plant Compatibility Seeds of monocotyledonous and dicotyledonous weed plants and crop plants are placed in plastic or organic planting pots and covered with soil. The compounds of the invention, formulated in the form of wettable powders (WP) or as emulsion concentrates (EC), are then applied onto the surface of the covering soil as aqueous suspension or emulsion with addition of 0.5% additive at a water application rate of […] (converted). After the treatment, the pots are placed in a greenhouse and kept under good growth conditions for the trial plants. After about 3 weeks, the effect of the preparations is scored visually in comparison with untreated controls as percentages. The tables below show the herbicidal activity of numerous compounds according to the invention against important harmful plants. For example, 100% activity=the plants have died, 0% activity=like control plants.

Cn1ncc(C(=O)c2ccc(C(F)(F)F)c3c2OC[S+]3[O-])c1O (stereo not shown) [Example 1-28]
Pre-emergence action against CYPES: 90%
